Reference: patent US12564193B2, “Isoxazoline-substituted benzamide derivative, and preparation method therefor and use thereof” (SHANDONG UNITED PESTICIDE INDUSTRY CO., LTD., priority 2020, dated 2026)
Read-outs that look alike come from different tables or passages of the source.

What was measured:
Format in all cases: in vivo
[1] = test system: Tetranychus cinnabarinus; experiment: Acaricidal activity, slide immersion of female adult mites: Tetranychus cinnabarinus; settings: read-out: fatality rate on Tetranychus cinnabarinus
Description: The test method was as follows: a test solution with a desired concentration was prepared by dissolving a test compound sample in a suitable solvent (the kind of solvent was such as acetone, methanol, DMSO, etc., and was selected according to its dissolving ability for the sample). A double-sided adhesive tape was cut into 2-3 cm long pieces, the pieces were attached to one end of a microscope slide, paper pieces on the adhesive tape were removed using tweezers, female adult mites which were consistent in size, bright in body color and lively in action were selected using a zero-size brush pen, the backs of the female adult mites were adhered to the double-sided adhesive tape (note: the adhesion should not cover mite feet, mite whiskers and mouthparts), with 4 rows of mites adhered to each piece and 10 heads of the mites adhered to each row.
One end of the glass slide with the mites was immersed into a drug liquid, with slightly shaking for 5 seconds, and then the slide was taken out. The excess drug liquid around the mite body and is surroundings is quickly sucked off using absorbent paper. The slide was placed in the biochemical incubator described above, and the results were checked by using binoculars after 24 hours. The mites were slightly touched by using a brush pen, the mites with immobility in feet were considered to be dead, and the fatality rate was calculated. The fatality rate was calculated as follows: […]

[2] = test system: Spodoptera litura; experiment: Insecticidal activity, spray on pre-infested radish plants: Spodoptera litura; settings: 144 h, read-out: fatality rate on Spodoptera litura
Description: (§1) For determination of insecticidal activity, the test method was as follows: a test solution with a desired concentration was prepared by dissolving a test compound sample in a suitable solvent (the kind of solvent was such as acetone, methanol, DMSO, etc., and was selected according to its dissolving ability for the sample). The test cell was composed of a small open container with 12-15 day old radish plants inside. The plants were pre-infested by placing 30-40 pests located on one leaf cut from the cultivated plant on one leaf of the test plant (leaf cutting method). As the leaves dehydrated, the pests moved on the test plants. After the pre-infesting, the soil of the test cells was covered with a layer of sand.
(§2) The test method was as follows: the test was repeated for three times, and after spraying the formulated test compound, each test unit was allowed to dry for 1 hour, and then a black mesh cover was placed at the top. The test units were kept in a growth chamber at 25° C. and 70% relative humidity for 6 days. The mortality (fatality rate) of the insects was then visually assessed for each test unit, and the fatality rate was calculated as follows: […]

[3] = test system: Mythimna separata; experiment: Insecticidal activity, spray on pre-infested radish plants: Mythimna separata; settings: for pest or weed control at 0.1 ppm / pest or weed control at 1 ppm / pest or weed control at 10 ppm: Mythimna separata, 144 h, read-out: fatality rate on Mythimna separata; for Fatality rate on Mythimna separata (%): Table 3
Description: as §1, §2

[4] = test system: Pieris rapae; experiment: Insecticidal activity, spray on pre-infested radish plants: Pieris rapae; settings: 144 h, read-out: fatality rate on Pieris rapae
Description: as §1, §2

[5] = test system: Chilo suppressalis; experiment: Insecticidal activity, spray on pre-infested radish plants: Chilo suppressalis; settings: for pest or weed control at 0.1 ppm / pest or weed control at 1 ppm / pest or weed control at 10 ppm: Chilo suppressalis, 144 h, read-out: fatality rate on Chilo suppressalis; for Fatality rate on Chilo suppressalis (%): Table 3
Description: as §1, §2

[6] = test system: Cnaphalocrocis medinalis; experiment: Insecticidal activity, spray on pre-infested radish plants: Cnaphalocrocis medinalis; settings: 144 h, read-out: fatality rate on Cnaphalocrocis medinalis
Description: as §1, §2

[7] = test system: Plutella xylostella; experiment: Insecticidal activity, spray on pre-infested radish plants: Plutella xylostella; settings: for pest or weed control at 0.1 ppm / pest or weed control at 1 ppm / pest or weed control at 10 ppm: Plutella xylostella, 144 h, read-out: fatality rate on Plutella xylostella; for Fatality rate on Plutella xylostella (%): Table 3
Description: as §1, §2

[8] = test system: Frankliniella occidentalis; experiment: Insecticidal activity, spray on pre-infested radish plants: Frankliniella occidentalis; settings: for pest or weed control at 1 ppm / pest or weed control at 10 ppm / pest or weed control at 25 ppm: Frankliniella occidentalis, 144 h, read-out: fatality rate on Frankliniella occidentalis; for Fatality rate on Frankliniella occidentalis (%): Table 3
Description: as §1
The test method was as follows: the test was repeated for three times, and after spraying the formulated test compound, each test unit was allowed to dry for 1 hour, and then a black mesh cover was placed at the top. The test units were kept in a growth chamber at 25° C. and 70% relative humidity for 6 days. The mortality (fatality rate) of the insects was then visually assessed for each test unit, and the fatality rate was calculated as follows:
[formula] (1) Test Results for the Control of Frankliniella occidentalis by Exemplary Example Compounds

[9] = dose 1 ppm, immersion 5 seconds, checked after 24 hours
[10] = dose 10 ppm, immersion 5 seconds, checked after 24 hours
[11] = dose 25 ppm, immersion 5 seconds, checked after 24 hours

Cc1cc(C2=NOC(c3cc(F)c(F)c(F)c3)(C(F)(F)F)C2)ccc1C(=O)NCc1cnc(Cl)cc1C(F)(F)F (stereo not drawn) [Compound 6]
pest or weed control at 1 ppm [1, 9]: > 80%
pest or weed control at 10 ppm [1, 10]: > 80%
pest or weed control at 25 ppm [1, 11]: > 80%
pest or weed control at 0.1 ppm ([2]; dose 0.1 ppm, spray, 6 days): > 80%
pest or weed control at 1 ppm ([2]; dose 1 ppm, spray, 6 days): > 80%
pest or weed control at 10 ppm ([2]; dose 10 ppm, spray, 6 days): > 80%
pest or weed control at 0.1 ppm ([3]; dose 0.1 ppm, spray, 6 days): > 80%
pest or weed control at 1 ppm ([3]; dose 1 ppm, spray, 6 days): > 80%
pest or weed control at 10 ppm ([3]; dose 10 ppm, spray, 6 days): > 80%
pest or weed control at 0.1 ppm ([4]; dose 0.1 ppm, spray, 6 days): > 80%
pest or weed control at 1 ppm ([4]; dose 1 ppm, spray, 6 days): > 80%
pest or weed control at 10 ppm ([4]; dose 10 ppm, spray, 6 days): > 80%
pest or weed control at 0.1 ppm ([5]; dose 0.1 ppm, spray, 6 days): > 80%
pest or weed control at 1 ppm ([5]; dose 1 ppm, spray, 6 days): > 80%
pest or weed control at 10 ppm ([5]; dose 10 ppm, spray, 6 days): > 80%
pest or weed control at 0.1 ppm ([6]; dose 0.1 ppm, spray, 6 days): > 80%
pest or weed control at 1 ppm ([6]; dose 1 ppm, spray, 6 days): > 80%
pest or weed control at 10 ppm ([6]; dose 10 ppm, spray, 6 days): > 80%
pest or weed control at 0.1 ppm ([7]; dose 0.1 ppm, spray, 6 days): > 80%
pest or weed control at 1 ppm ([7]; dose 1 ppm, spray, 6 days): > 80%
pest or weed control at 10 ppm ([7]; dose 10 ppm, spray, 6 days): > 80%
pest or weed control at 1 ppm ([8]; dose 1 ppm, spray, 6 days): > 80%
pest or weed control at 10 ppm ([8]; dose 10 ppm, spray, 6 days): > 80%
pest or weed control at 25 ppm ([8]; dose 25 ppm, spray, 6 days): > 80%

Cc1cc(C2=NOC(c3cc(Cl)c(F)c(Cl)c3)(C(F)(F)F)C2)ccc1C(=O)NCc1cnc(Cl)cc1Cl (stereo not drawn) [Compound 7]
pest or weed control at 1 ppm ([1]; 24 h): > 80%
pest or weed control at 10 ppm ([1]; 24 h): > 80%
pest or weed control at 25 ppm ([1]; 24 h): > 80%
pest or weed control at 0.1 ppm [2]: > 80%
pest or weed control at 1 ppm [2]: > 80%
pest or weed control at 10 ppm [2]: > 80%
pest or weed control at 0.1 ppm [3]: > 80%
pest or weed control at 1 ppm [3]: > 80%
pest or weed control at 10 ppm [3]: > 80%
pest or weed control at 0.1 ppm [4]: > 80%
pest or weed control at 1 ppm [4]: > 80%
pest or weed control at 10 ppm [4]: > 80%
pest or weed control at 0.1 ppm [5]: > 80%
pest or weed control at 1 ppm [5]: > 80%
pest or weed control at 10 ppm [5]: > 80%
pest or weed control at 0.1 ppm [6]: > 80%
pest or weed control at 1 ppm [6]: > 80%
pest or weed control at 10 ppm [6]: > 80%
pest or weed control at 0.1 ppm [7]: > 80%
pest or weed control at 1 ppm [7]: > 80%
pest or weed control at 10 ppm [7]: > 80%
pest or weed control at 1 ppm [8]: > 80%
pest or weed control at 10 ppm [8]: > 80%
pest or weed control at 25 ppm [8]: > 80%

Cc1cc(C2=NOC(c3cc(F)c(F)c(F)c3)(C(F)(F)F)C2)ccc1C(=O)NCc1cnc(Cl)cc1Cl (stereo not drawn) [Compound 8]
pest or weed control at 1 ppm [1, 9]: > 80%
pest or weed control at 10 ppm [1, 10]: > 80%
pest or weed control at 25 ppm [1, 11]: > 80%
pest or weed control at 0.1 ppm ([2]; dose 0.1 ppm, spray, 6 days): > 80%
pest or weed control at 1 ppm ([2]; dose 1 ppm, spray, 6 days): > 80%
pest or weed control at 10 ppm ([2]; dose 10 ppm, spray, 6 days): > 80%
pest or weed control at 0.1 ppm ([3]; dose 0.1 ppm, spray, 6 days): > 80%
pest or weed control at 1 ppm ([3]; dose 1 ppm, spray, 6 days): > 80%
pest or weed control at 10 ppm ([3]; dose 10 ppm, spray, 6 days): > 80%
pest or weed control at 0.1 ppm ([4]; dose 0.1 ppm, spray, 6 days): > 80%
pest or weed control at 1 ppm ([4]; dose 1 ppm, spray, 6 days): > 80%
pest or weed control at 10 ppm ([4]; dose 10 ppm, spray, 6 days): > 80%
pest or weed control at 0.1 ppm ([5]; dose 0.1 ppm, spray, 6 days): > 80%
pest or weed control at 1 ppm ([5]; dose 1 ppm, spray, 6 days): > 80%
pest or weed control at 10 ppm ([5]; dose 10 ppm, spray, 6 days): > 80%
pest or weed control at 0.1 ppm ([6]; dose 0.1 ppm, spray, 6 days): > 80%
pest or weed control at 1 ppm ([6]; dose 1 ppm, spray, 6 days): > 80%
pest or weed control at 10 ppm ([6]; dose 10 ppm, spray, 6 days): > 80%
pest or weed control at 0.1 ppm ([7]; dose 0.1 ppm, spray, 6 days): > 80%
pest or weed control at 1 ppm ([7]; dose 1 ppm, spray, 6 days): > 80%
pest or weed control at 10 ppm ([7]; dose 10 ppm, spray, 6 days): > 80%
pest or weed control at 1 ppm ([8]; dose 1 ppm, spray, 6 days): > 80%
pest or weed control at 10 ppm ([8]; dose 10 ppm, spray, 6 days): > 80%
pest or weed control at 25 ppm ([8]; dose 25 ppm, spray, 6 days): > 80%

Cc1cc(C2=NOC(c3cc(Cl)c(F)c(Cl)c3)(C(F)(F)F)C2)ccc1C(=O)NCc1ncc(C(F)(F)F)cc1Cl (stereo not drawn) [Compound 9, N-((3-chloro-5-(trifluoromethyl)pyridin-2-yl)methyl)-4-(5-(3,5-dichloro-4-fluorophenyl)-5-(trifluoromethyl)-4,5-dihydroisoxazol-3-yl)-2-methylbenzamide]
pest or weed control at 1 ppm ([1]; 24 h): > 80%
pest or weed control at 10 ppm ([1]; 24 h): > 80%
pest or weed control at 25 ppm ([1]; 24 h): > 80%
pest or weed control at 0.1 ppm [2]: > 80%
pest or weed control at 1 ppm [2]: > 80%
pest or weed control at 10 ppm [2]: > 80%
Fatality rate on Mythimna separata (%) ([3]; 0.1 ppm): 100%
Fatality rate on Mythimna separata (%) ([3]; 1 ppm): 100%
Fatality rate on Mythimna separata (%) ([3]; 10 ppm): 100%
pest or weed control at 0.1 ppm [3]: > 80%
pest or weed control at 1 ppm [3]: > 80%
pest or weed control at 10 ppm [3]: > 80%
pest or weed control at 0.1 ppm [4]: > 80%
pest or weed control at 1 ppm [4]: > 80%
pest or weed control at 10 ppm [4]: > 80%
Fatality rate on Chilo suppressalis (%) ([5]; 0.1 ppm): 95%
Fatality rate on Chilo suppressalis (%) ([5]; 1 ppm): 100%
Fatality rate on Chilo suppressalis (%) ([5]; 10 ppm): 100%
pest or weed control at 0.1 ppm [5]: > 80%
pest or weed control at 1 ppm [5]: > 80%
pest or weed control at 10 ppm [5]: > 80%
pest or weed control at 0.1 ppm [6]: > 80%
pest or weed control at 1 ppm [6]: > 80%
pest or weed control at 10 ppm [6]: > 80%
Fatality rate on Plutella xylostella (%) ([7]; 0.1 ppm): 100%
Fatality rate on Plutella xylostella (%) ([7]; 1 ppm): 100%
Fatality rate on Plutella xylostella (%) ([7]; 10 ppm): 100%
pest or weed control at 0.1 ppm [7]: > 80%
pest or weed control at 1 ppm [7]: > 80%
pest or weed control at 10 ppm [7]: > 80%
Fatality rate on Frankliniella occidentalis (%) ([8]; 1 ppm): 95%
Fatality rate on Frankliniella occidentalis (%) ([8]; 10 ppm): 100%
Fatality rate on Frankliniella occidentalis (%) ([8]; 25 ppm): 100%
pest or weed control at 1 ppm [8]: > 80%
pest or weed control at 10 ppm [8]: > 80%
pest or weed control at 25 ppm [8]: > 80%
